Measured values: US10981894B2, “Melanocortin subtype-2 receptor (MC2R) antagonists and uses thereof” (Crinetics Pharmaceuticals, Inc., priority 2018, dated 2021)

Target: hMC2 receptor (Homo sapiens, UniProt Q01718)
Assay: hMC2 membrane binding assay ([125I]ACTH (1-39) Tyr23, SPA)
Set-up: scale not given here
Details: crude hMC2R membranes from CRE-bla-CHO-K1 cells expressing hMC2 receptor and hMRAP; [125I]ACTH (1-39) Tyr23 0.2 nM; 1.5 hours at room temperature; read-out: MC2R binding potency
Summary of the method: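 CRE-bla-CHO-K1 membranes co-expressing hMC2 receptor and hMRAP, preincubated with WGA PVT SPA beads in pH 7.4 HEPES/MgCl2/CaCl2/0.2% BSA buffer. Compounds (typically 0–10,000 nM final) compete with 0.2 nM [125I]ACTH(1-39) Tyr23 for 1.5 h at room temperature. SPA counts give Ki by non-linear regression.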

Sequence of hMC2 receptor (Q01718 whole entry): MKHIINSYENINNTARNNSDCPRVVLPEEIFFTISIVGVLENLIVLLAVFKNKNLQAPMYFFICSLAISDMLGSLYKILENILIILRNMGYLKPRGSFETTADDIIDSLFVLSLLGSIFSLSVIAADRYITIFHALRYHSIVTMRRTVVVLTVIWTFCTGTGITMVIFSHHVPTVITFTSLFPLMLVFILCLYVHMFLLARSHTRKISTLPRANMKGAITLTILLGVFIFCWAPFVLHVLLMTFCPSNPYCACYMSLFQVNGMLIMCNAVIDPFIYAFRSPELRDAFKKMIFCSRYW
Sequence of hMC2 receptor (Q8TCY5 whole entry partner): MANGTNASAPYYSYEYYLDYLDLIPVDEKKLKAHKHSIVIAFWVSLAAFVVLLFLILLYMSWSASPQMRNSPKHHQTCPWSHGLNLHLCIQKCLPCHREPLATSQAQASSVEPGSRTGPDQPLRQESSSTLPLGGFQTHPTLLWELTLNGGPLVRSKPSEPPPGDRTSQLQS

Row | SMILES | Ki
1 | CCOc1ccccc1-c1ccc(N2CCN(C(=O)c3ccc(OC)nc3C(F)(F)F)C[C@H]2CC)c(C(=O)N[C@@H]2CCN(C)C2)n1 [Compound 1-253, 6-(2-ethoxyphenyl)-3-[(2R)-2-ethyl-4-[6-methoxy-2-(trifluoromethyl)pyridine-3-carbonyl]piperazin-1-yl]-N-[(3R)-1-methylpyrrolidin-3-yl]pyridine-2-carboxamide] | < 10 nM
2 | CCOc1ccccc1-c1ccc(N2CCN(C(=O)N3CCC[C@H]3C(F)(F)F)C[C@H]2CC)c(C(=O)N[C@H]2CCN(C)C2)n1 [Compound 1-375, 6-(2-ethoxyphenyl)-3-[(2R)-2-ethyl-4-[(2S)-2-(trifluoromethyl)pyrrolidine-1-carbonyl]piperazin-1-yl]-N-[(3S)-1-methylpyrrolidin-3-yl]pyridine-2-carboxamide] | < 10 nM
3 | CCOc1ncccc1-c1ccc(N2CCN(C(=O)c3ccc(F)cc3C(F)(F)F)C[C@H]2CC)c(C(=O)NCC2=NCCN2)c1F [Compound 1-182, N-[(4,5-dihydro-1H-imidazol-2-yl)methyl]-3-(2-ethoxypyridin-3-yl)-6-[(2R)-2-ethyl-4-[4-fluoro-2-(trifluoromethyl)benzoyl]piperazin-1-yl]-2-fluorobenzamide] | < 10 nM
4 | CCOc1ccccc1-c1ccc(N2CCN(C(=O)OC3(C(F)(F)F)CCC3)C[C@H]2CC)c(C(=O)N[C@@H]2CCNC2)n1 [Compound 1-338, 1-(trifluoromethyl)cyclobutyl (3R)-4-[6-(2-ethoxyphenyl)-2-{[(3R)-pyrrolidin-3-yl]carbamoyl}pyridin-3-yl]-3-ethylpiperazine-1-carboxylate] | < 10 nM
5 | CCOc1ncccc1-c1ccc(N2CCN(C(=O)c3ccc(Cl)cc3C(F)(F)F)C[C@H]2CC)c(C(=O)NCCNC)c1 [Compound 1-46, 2-[(2R)-4-[4-chloro-2-(trifluoromethyl)benzoyl]-2-ethylpiperazin-1-yl]-5-(2-ethoxypyridin-3-yl)-N-[2-(methylamino)ethyl]benzamide] | < 10 nM
6 | CC[C@@H]1CN(C(=O)c2ccc(C(F)(F)F)cc2Cl)CCN1c1ccc(-c2ccccc2C)cc1C(=O)NCCN [Compound 1-8, N-(2-aminoethyl)-4-[(2R)-4-[2-chloro-4-(trifluoromethyl)benzoyl]-2-ethylpiperazin-1-yl]-2′-methyl-[1,1′-biphenyl]-3-carboxamide] | 10 to 100 nM
7 | CCOc1ncccc1-c1ccc(N2CCN(C(=O)C34CCC(C(F)(F)F)(CC3)C4)C[C@H]2CC)c(C(=O)NCC2CN(C)C2)n1 [Compound 1-395, 2′-ethoxy-5-[(2R)-2-ethyl-4-[4-(trifluoromethyl)bicyclo[2.2.1]heptane-1-carbonyl]piperazin-1-yl]-N-[(1-methylazetidin-3-yl)methyl]-[2,3′-bipyridine]-6-carboxamide] | < 10 nM
8 | CCOc1ncccc1-c1ccc(N2CCN(C(=O)N3CCc4cc(F)cc(Cl)c43)C[C@H]2CC)c(C(=O)NC2CN(C)C2)n1 [Compound 1-420, 5-[(2R)-4-(7-chloro-5-fluoro-2,3-dihydro-1H-indole-1-carbonyl)-2-ethylpiperazin-1-yl]-2′-ethoxy-N-(1-methylazetidin-3-yl)-[2,3′-bipyridine]-6-carboxamide] | < 10 nM
9 | CCOc1ncccc1-c1ccc(N2CCN(C(=O)N3CCC[C@H]3C(F)(F)F)C[C@H]2CC)c(C(=O)N[C@@H]2CCN(C)C2)n1 [Compound 1-372, 2′-ethoxy-5-[(2R)-2-ethyl-4-[(2S)-2-(trifluoromethyl)pyrrolidine-1-carbonyl]piperazin-1-yl]-N-[(3R)-1-methylpyrrolidin-3-yl]-[2,3′-bipyridine]-6-carboxamide] | < 10 nM
10 | CCOc1ncccc1-c1ccc(N2CCN(C(=O)c3ccc(F)cc3Cl)C[C@H]2CC)c(C(=O)N[C@@H]2CCNC2)c1F [Compound 1-73, 6-[(2R)-4-(2-chloro-4-fluorobenzoyl)-2-ethylpiperazin-1-yl]-3-(2-ethoxypyridin-3-yl)-2-fluoro-N-[(3R)-pyrrolidin-3-yl]benzamide] | < 10 nM
11 | CCOc1ncccc1-c1ccc(N2CCN(C(=O)C3(C(F)(F)F)CCCC3)C[C@H]2CC)c(C(=O)NC[C@@H]2CCCN2)n1 [Compound 1-325, 2′-ethoxy-5-[(2R)-2-ethyl-4-[1-(trifluoromethyl)cyclopentanecarbonyl]piperazin-1-yl]-N-{[(2S)-pyrrolidin-2-yl]methyl}-[2,3′-bipyridine]-6-carboxamide] | < 10 nM

Second part, the compound after the results:

Row | Ki | SMILES
12 | < 10 nM | CCOc1ccccc1-c1ccc(N2CCN(C(=O)N3CCC[C@H]3C(F)(F)F)C[C@H]2CC)c(C(=O)N[C@H]2CCNC2)n1 [Compound 1-343, 6-(2-ethoxyphenyl)-3-[(2R)-2-ethyl-4-[(2S)-2-(trifluoromethyl)pyrrolidine-1-carbonyl]piperazin-1-yl]-N-[(3S)-pyrrolidin-3-yl]pyridine-2-carboxamide]
13 | < 10 nM | CCOc1ncccc1-c1ccc(N2CCN(C(=O)N3CCc4cc(F)cc(Cl)c43)C[C@H]2CC)c(C(=O)N[C@H]2CCN(C)C2)n1 [Compound 1-419, 5-[(2R)-4-(7-chloro-5-fluoro-2,3-dihydro-1H-indole-1-carbonyl)-2-ethylpiperazin-1-yl]-2′-ethoxy-N-[(3S)-1-methylpyrrolidin-3-yl]-[2,3′-bipyridine]-6-carboxamide]
14 | < 10 nM | CCOc1ncccc1-c1ccc(N2CCN(C(=O)C3(c4ccc(F)cc4F)CCC3)C[C@H]2CC)c(C(=O)N[C@@H]2CCN(C)C2)n1 [Compound 1-371, 5-[(2R)-4-[1-(2,4-difluorophenyl)cyclobutanecarbonyl]-2-ethylpiperazin-1-yl]-2′-ethoxy-N-[(3R)-1-methylpyrrolidin-3-yl]-[2,3′-bipyridine]-6-carboxamide]
15 | < 10 nM | CCOc1ncccc1-c1ccc(N2CCN(C(=O)N3CCC[C@H]3C(C)(C)F)C[C@H]2CC)c(C(=O)N[C@@H]2CCNC2)n1 [Compound 1-320, 2′-ethoxy-5-[(2R)-2-ethyl-4-[(2S)-2-(2-fluoropropan-2-yl)pyrrolidine-1-carbonyl]piperazin-1-yl]-N-[(3R)-pyrrolidin-3-yl]-[2,3′-bipyridine]-6-carboxamide]
16 | < 10 nM | CCOc1ncccc1-c1ccc(N2CCN(C(=O)c3ccc(Cl)cc3N3CC[C@@H](CN)C3)C[C@H]2CC)c(C(=O)NCCN)c1 [Compound 1-41, N-(2-aminoethyl)-2-[(2R)-4-{2-[(3S)-3-(aminomethyl)pyrrolidin-1-yl]-4-chlorobenzoyl}-2-ethylpiperazin-1-yl]-5-(2-ethoxypyridin-3-yl)benzamide]
17 | < 10 nM | CCOc1ccccc1-c1ccc(N2CCN(C(=O)N3CCCC3C(C)(C)C)C[C@H]2CC)c(C(=O)N[C@@H]2CCNC2)n1 (stereo partly drawn) [Compound 1-305, 3-[(2R)-4-(2-tert-butylpyrrolidine-1-carbonyl)-2-ethylpiperazin-1-yl]-6-(2-ethoxyphenyl)-N-[(3R)-pyrrolidin-3-yl]pyridine-2-carboxamide]
18 | < 10 nM | CCOc1ccccc1-c1ccc(N2CCN(C(=O)c3ccc(C)cc3-c3ccc(CN)cc3)C[C@H]2CC)c(C(=O)NCCN)c1 [Compound 1-18, (R)-N-(2-aminoethyl)-4-(4-(4′-(aminomethyl)-5-methyl-[1,1′-biphenyl]-2-carbonyl)-2-ethylpiperazin-1-yl)-2′-ethoxy-[1,1′-biphenyl]-3-carboxamide]
19 | < 10 nM | CCOc1ncccc1-c1ccc(N2CCN(C(=O)c3cc(Cl)sc3Cl)C[C@H]2CC)c(C(=O)N[C@@H]2CCN(C)C2)n1 [Compound 1-378, 5-[(2R)-4-(2,5-dichlorothiophene-3-carbonyl)-2-ethylpiperazin-1-yl]-2′-ethoxy-N-[(3R)-1-methylpyrrolidin-3-yl]-[2,3′-bipyridine]-6-carboxamide]
20 | < 10 nM | CC[C@@H]1CN(C(=O)c2ccc(OC)nc2C(F)(F)F)CCN1c1ccc(-c2cccnc2OC)nc1C(=O)NC1CN(C)C1 [Compound 1-246, 5-[(2R)-2-ethyl-4-[6-methoxy-2-(trifluoromethyl)pyridine-3-carbonyl]piperazin-1-yl]-2′-methoxy-N-(1-methylazetidin-3-yl)-[2,3′-bipyridine]-6-carboxamide]
21 | < 10 nM | CCOc1ncccc1-c1ccc(N2CCN(C(=O)N3CCc4cccc(C(F)(F)F)c43)C[C@H]2CC)c(C(=O)NC2CN(C)C2)n1 [Compound 1-418, 2′-ethoxy-5-[(2R)-2-ethyl-4-[7-(trifluoromethyl)-2,3-dihydro-1H-indole-1-carbonyl]piperazin-1-yl]-N-(1-methylazetidin-3-yl)-[2,3′-bipyridine]-6-carboxamide]
22 | < 10 nM | CCOc1ncccc1-c1ccc(N2CCN(C(=O)c3ccc(Cl)cc3C(F)(F)F)C[C@H]2CC)c(C(=O)NCCN2CC(F)C2)n1 [Compound 1-357, 5-[(2R)-4-[4-chloro-2-(trifluoromethyl)benzoyl]-2-ethylpiperazin-1-yl]-2′-ethoxy-N-[2-(3-fluoroazetidin-1-yl)ethyl]-[2,3′-bipyridine]-6-carboxamide]
23 | < 10 nM | CCOc1ncccc1-c1ccc(N2CCN(C(=O)c3ccc(Cl)cc3C(F)(F)F)C[C@H]2CC)c(C(=O)N[C@H]2CCNC2)n1 [Compound 1-214, 5-[(2R)-4-[4-chloro-2-(trifluoromethyl)benzoyl]-2-ethylpiperazin-1-yl]-2′-ethoxy-N-[(3S)-pyrrolidin-3-yl]-[2,3′-bipyridine]-6-carboxamide]
24 | < 10 nM | CCOc1ncccc1-c1ccc(N2CCN(C(=O)c3ccc(OC)cc3C(F)(F)F)C[C@H]2CC)c(C(=O)NCCNC)n1 [Compound 1-167, 2′-ethoxy-5-[(2R)-2-ethyl-4-[4-methoxy-2-(trifluoromethyl)benzoyl]piperazin-1-yl]-N-[2-(methylamino)ethyl]-[2,3′-bipyridine]-6-carboxamide]
25 | < 10 nM | CCOc1ncccc1-c1ccc(N2CCN(C(=O)c3ccc(OC)cc3C(F)(F)F)C[C@H]2CC)c(C(=O)NCC2=NCCN2)c1F [Compound 1-170, N-[(4,5-dihydro-1H-imidazol-2-yl)methyl]-3-(2-ethoxypyridin-3-yl)-6-[(2R)-2-ethyl-4-[4-methoxy-2-(trifluoromethyl)benzoyl]piperazin-1-yl]-2-fluorobenzamide]
